The term IC50 denotes the concentration at which inhibition is half-maximal.

The target in one experiment is T1, Human PKK (Homo sapiens, UniProt P03952).
T1 construct: purchased Enzyme Research Laboratories
The experiment in a line: Inhibition of PKK using an endpoint assay (human PKK). Type of experiment: biochemical. The following applies: fluorogenic substrate H-Pro-Phe-Arg-AMC, 1 h room temperature, method names human or rat PKK, table does not say which. An outline of the steps:
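Endpoint fluorescence (ex 355 nm, em 460 nm) after stopping with 1 μM final PPACK II. Buffer: Tris 100 mM pH 7.8, NaCl 150 mM, BSA 0.1%, Tween20 0.05%, with 1% DMSO present; enzyme is human plasma kallikrein.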

Experiment [1] concerns the target T2, PKK in kaolin activated human platelet poor plasma (Homo sapiens, UniProt P03952).
T2 construct: Platelet poor plasma (PPP) obtained from human wholeblood; from tissue
The experiment can be described thus: Inhibition of PKK in kaolin activated human PPP.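 Also: readout is the rate of fluorogenic substrate cleavage in rfu per min.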 The format is biochemical. The conditions noted are these: 25-750 μg/mL kaolin, global fit, text b200 calls the values IC90. How it is done:
Platelet poor plasma (PPP) obtained from human wholeblood, anticoagulated with Na-Citrate, is incubated with various concentrations of the test compound together with either 25, 75, 250, or 750 μg/mL kaolin in assay buffer for 20 min at 37° C. such that for each kaolin dose used a concentration response is obtained for the test compound.

T2 sequence (P03952 391-638 limits assumed): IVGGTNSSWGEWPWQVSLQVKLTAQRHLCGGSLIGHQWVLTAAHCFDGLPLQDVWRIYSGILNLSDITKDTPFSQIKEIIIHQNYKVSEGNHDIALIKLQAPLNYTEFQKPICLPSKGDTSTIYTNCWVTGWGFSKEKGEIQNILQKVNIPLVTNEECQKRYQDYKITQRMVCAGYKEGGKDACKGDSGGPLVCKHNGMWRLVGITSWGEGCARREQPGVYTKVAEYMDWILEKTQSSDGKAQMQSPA
T2 sequence (P03952 20-390 limits assumed): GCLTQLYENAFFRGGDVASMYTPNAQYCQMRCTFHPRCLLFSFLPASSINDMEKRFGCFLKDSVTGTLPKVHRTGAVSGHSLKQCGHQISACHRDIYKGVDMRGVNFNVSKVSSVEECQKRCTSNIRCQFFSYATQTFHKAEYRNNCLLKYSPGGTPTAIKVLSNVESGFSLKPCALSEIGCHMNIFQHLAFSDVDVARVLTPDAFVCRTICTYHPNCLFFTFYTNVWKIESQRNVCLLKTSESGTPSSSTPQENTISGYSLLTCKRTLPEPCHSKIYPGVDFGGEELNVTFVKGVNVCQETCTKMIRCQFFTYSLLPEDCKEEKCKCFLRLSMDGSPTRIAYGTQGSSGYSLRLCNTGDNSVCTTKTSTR
T1 sequence (P03952 20-390 limits assumed): as above
T1 sequence (P03952 391-638 limits assumed): as the sequence (P03952 391-638 limits assumed) above

Regarding `CCc1nc(N2C[C@@H]3[C@H](C)[C@@H]3C2)ccc1Cn1cnc(C(=O)N[C@@H]2CCc3c2ncn3C)c1` [Example 143, 1-({2-Ethyl-6-[(1R,5S,6R)-6-methyl-3-azabicyclo[3.1.0]hexan-3-yl]pyridin-3-yl}methyl)-N-[(4R)-1-methyl-1H,4H,5H,6H-cyclopenta-[d]imidazol-4-yl]-1H-imidazole-4-carboxamide], the results for the IC50 (against Human PKK; in experiment [1]) were 0.6 nM and 1170 nM, respectively.

On to `Cn1cnc2c1CC[C@H]2NC(=O)c1cnn(Cc2ccc(N3CC4CC4C3)nc2Br)c1` (stereo partly drawn) [Example 40, 1-[(6-{3-Azabicyclo[3.1.0]hexan-3-yl}-2-bromopyridin-3-yl)methyl]-N-[(4R)-1-methyl-1H,4H,5H,6H-cyclopenta[d]imidazol-4-yl]-1H-pyrazole-4-carboxamide], for which the IC50 on Human PKK was found to be 1.2 nM; in experiment [1], 543 nM.

In the case of `Cn1cnc2c1CC[C@H]2NC(=O)c1cn(Cc2ccc(N3CC4CC4C3)nc2C(F)F)cn1` (stereo partly drawn) [Example 64, 1-[(6-{3-Azabicyclo[3.1.0]hexan-3-yl}-2-(difluoromethyl)-pyridin-3-yl)methyl]-N-[(4R)-1-methyl-1H,4H,5H,6H-cyclopenta[d]imidazol-4-yl]-1H-imidazole-4-carboxamide], the IC50 at Human PKK came to 0.7 nM; in experiment [1], 221 nM.

In the case of `CCc1nc(N2CC3CC3C2)ccc1Cc1cc(C(=O)N[C@@H]2CCc3c2ncn3C)n(C)n1` (stereo partly drawn) [Example 166, 3-[(6-{3-Azabicyclo[3.1.0]hexan-3-yl}-2-ethylpyridin-3-yl)methyl]-1-methyl-N-[(4R)-1-methyl-1H,4H,5H,6H-cyclopenta[d]imidazol-4-yl]-1H-pyrazole-5-carboxamide], the IC50 against Human PKK was found to be 1 nM; in experiment [1] it was 193 nM.

As for `Cn1cnc2c1CC[C@H]2NC(=O)c1cn(Cc2ccc(N3CC4(CC4)C3)nc2Br)nn1` [Example 6, 1-[(6-{5-Azaspiro[2.3]hexan-5-yl}-2-bromopyridin-3-yl)methyl]-N-[(4R)-1-methyl-1H,4H,5H,6H-cyclo-penta[d]imidazol-4-yl]-1H-1,2,3-triazole-4-carboxamide], the results for the IC50 (against Human PKK; in experiment [1]) were 0.9 nM and 1880 nM, respectively.

As to `Cc1nc(N2CC3C(C2)C3(F)F)cnc1Cn1cc(C(=O)N[C@@H]2CCc3c2ncn3C)nn1` (stereo partly drawn) [Example 94, 1-[(5-{6,6-Difluoro-3-azabicyclo[3.1.0]hexan-3-yl}-3-methylpyrazin-2-yl)methyl]-N-[(4R)-1-methyl-1H,4H,5H,6H-cyclopenta[d]imidazol-4-yl]-1H-1,2,3-triazole-4-carboxamide], the IC50 worked out at 10.8 nM on Human PKK and 1760 nM in experiment [1].

`Cn1cnc2c1CC[C@H]2NC(=O)c1cn(Cc2ccc(N3CC4CC4C3)c(C#N)c2Cl)cn1` (stereo partly drawn) [Example 203, 1-[(4-{3-azabicyclo[3.1.0]hexan-3-yl}-2-chloro-3-cyanophenyl)methyl]-N-[(4R)-1-methyl-1H,4H,5H,6H-cyclopenta[d]imidazol-4-yl]-1H-imidazole-4-carboxamide]: the IC50 was found to be 0.7 nM on Human PKK and 202 nM in experiment [1].

For the compound `Cn1cnc2c1CC[C@H]2NC(=O)c1cnn(Cc2ccc(N3CC4CC4C3)nc2C#N)c1` (stereo partly drawn) [Example 132, 1-[(6-{3-Azabicyclo[3.1.0]hexan-3-yl}-2-cyanopyridin-3-yl)methyl]-N-[(4R)-1-methyl-1H,4H,5H,6H-cyclopenta[d]imidazol-4-yl]-1H-pyrazole-4-carboxamide], the IC50 at Human PKK was 1.9 nM; in experiment [1] it was 425 nM.

`Cn1cnc2c1CC[C@H]2NC(=O)c1cn(Cc2ccc(N3CC4C(C3)C4(F)F)nc2C(F)F)cn1` (stereo partly drawn) [Example 45, 1-[(6-{6,6-Difluoro-3-azabicyclo[3.1.0]hexan-3-yl}-2-(difluoromethyl)pyridin-3-yl)methyl]-N-[(4R)-1-methyl-1H,4H,5H,6H-cyclopenta-[d]imidazol-4-yl]-1H-imidazole-4-carboxamide]: the IC50 was found to be 0.7 nM on Human PKK and 151 nM in experiment [1].

On to `CCc1nc(N2CC3C(C2)C3(F)F)ccc1Cc1cc(C(=O)N[C@@H]2CCc3c2ncn3C)on1` (stereo partly drawn) [Example 153, 3-[(6-{6,6-Difluoro-3-azabicyclo[3.1.0]hexan-3-yl}-2-ethylpyridin-3-yl)methyl]-N-[(4R)-1-methyl-1H,4H,5H,6H-cyclopenta[d]imidazol-4-yl]-1,2-oxazole-5-carboxamide], for which the IC50 was determined as 0.5 nM at Human PKK and 280 nM in experiment [1].

As for `Cn1cnc2c1CC[C@H]2NC(=O)c1cn(Cc2ccc(N3CC4C(C3)C4(F)F)nc2Br)nn1` (stereo partly drawn) [Example 14, 1-[(2-Bromo-6-{6,6-difluoro-3-azabicyclo-[3.1.0]hexan-3-yl}pyridin-3-yl)methyl]-N-[(4R)-1-methyl-1H,4H,5H,6H-cyclopenta[d]imidazol-4-yl]-1H-1,2,3-triazole-4-carboxamide], the IC50 was 1 nM against Human PKK and 636 nM in experiment [1].

In the case of `Cn1cnc2c1CC[C@H]2NC(=O)c1cnn(Cc2ccc(N3CC4C(C3)C4(F)F)nc2Br)c1` (stereo partly drawn) [Example 15, 1-[(2-Bromo-6-{6,6-difluoro-3-azabicyclo-[3.1.0]hexan-3-yl}pyridin-3-yl)methyl]-N-[(4R)-1-methyl-1H,4H,5H,6H-cyclopenta[d]imidazol-4-yl]-1H-pyrazole-4-carboxamide], the values for the IC50 (at Human PKK; in experiment [1]) were 1.1 nM and 414 nM, respectively.

In the case of `Cc1nc(N2CC3CC3C2)ccc1Cc1cc(C(=O)N[C@@H]2CCc3c2ncn3C)co1` (stereo partly drawn) [Example 182, 5-[(6-{3-Azabicyclo[3.1.0]hexan-3-yl}-2-methylpyridin-3-yl)methyl]-N-[(4R)-1-methyl-1H,4H,5H,6H-cyclopenta[d]imidazol-4-yl]furan-3-carboxamide], the IC50 amounted to 7.1 nM against Human PKK and 6270 nM in experiment [1].

With `Cn1cnc2c1CC[C@H]2NC(=O)c1cn(Cc2ccc(N3CC4CC4C3)nc2CO)nn1` (stereo partly drawn) [Example 91, 1-[(6-{3-Azabicyclo[3.1.0]hexan-3-yl}-2-(hydroxymethyl)-pyridin-3-yl)methyl]-N-[(4R)-1-methyl-1H,4H,5H,6H-cyclo-penta[d]imidazol-4-yl]-1H-1,2,3-triazole-4-carboxamide], the IC50 at Human PKK was found to be 2.1 nM; in experiment [1], 439 nM.

Take `Cn1cnc2c1CC[C@H]2NC(=O)c1cnn(Cc2ccc(N3CC4(CC4)C3)nc2CO)c1` [Example 79, 1-[(6-{5-Azaspiro[2.3]hexan-5-yl}-2-(hydroxymethyl)-pyridin-3-yl)methyl]-N-[(4R)-1-methyl-1H,4H,5H,6H-cyclopenta[d]imidazol-4-yl]-1H-pyrazole-4-carboxamide]: the IC50 against Human PKK was found to be 5.5 nM; in experiment [1], 249 nM.

With `Cn1cnc2c1CC[C@H]2NC(=O)c1cc(Cc2ccc(N3CC4C(C3)C4(F)F)nc2C(F)F)no1` (stereo partly drawn) [Example 145, 3-[(6-{6,6-Difluoro-3-azabicyclo[3.1.0]hexan-3-yl}-2-(difluoromethyl)pyridin-3-yl)methyl]-N-[(4R)-1-methyl-1H,4H,5H,6H-cyclopenta-[d]imidazol-4-yl]-1,2-oxazole-5-carboxamide], the values for the IC50 (against Human PKK; in experiment [1]) were 0.7 nM and 245 nM, respectively.

On to `Cn1cnc2c1CC[C@H]2NC(=O)c1cn(Cc2ccc(N3CC4C(C3)C4(F)F)nc2F)cn1` (stereo partly drawn) [Example 7, 1-[(6-{6,6-Difluoro-3-azabicyclo[3.1.0]hexan-3-yl}-2-fluoropyridin-3-yl)methyl]-N-[(4R)-1-methyl-1H,4H,5H,6H-cyclopenta[d]imidazol-4-yl]-1H-imidazole-4-carboxamide], for which the IC50 on Human PKK turned out to be 1.4 nM; in experiment [1] it was 151 nM.
